Measurements reported in patent US10512266B2, “Herbicidal compositions based on 3-phenyluracils and N-[[4-[cyclopropylamino)-carbonyl]phenyl]sulfonyl]-2-methoxybenzamide” (BASF SE, priority 2005, dated 2019).

Legend:
Conditions in all cases: safener II alone, 150 g/ha
TRZAS = experiment: Greenhouse post-emergence test, damage to crop plant TRZAS; assay type: in vivo, spring wheat
Description: (§1) For the post-emergence treatment, the test plants were first grown to a height of 3 to 20 cm, depending on the plant habit, and only then treated. Here, the herbicidal compositions were suspended or emulsified in water as distribution medium and sprayed using finely distributing nozzles. The respective component I was formulated as a 12% by weight strength emulsion concentrate, and component II as a 10% by weight suspension concentrate. Optionally components III can be used in their appropriate available formulation types. The components I, II and optionally III were introduced to the spray liquid with the amount of solvent system used for applying the active compound. The test period extended over 21 days. During this time, the plants were tended, and their response to the treatments with active compound was evaluated. The evaluation for the damage caused by the chemical compositions was carried out using a scale from 0 to 100%, compared to the untreated control plants. Here, 0 means no damage and 100 means complete destruction of the plants. […]

HORVW = experiment: Greenhouse post-emergence test, damage to crop plant HORVW; assay type: in vivo, winter barley
Description: as §1

ZEAMX = experiment: Greenhouse post-emergence test, damage to crop plant ZEAMX; assay type: in vivo, corn
Description: as §1

POLCO = experiment: Greenhouse post-emergence test, herbicidal action against POLCO; assay type: in vivo, wild buckwheat
Description: (§2) For the post-emergence treatment, the test plants were first grown to a height of 3 to 20 cm, depending on the plant habit, and only then treated. Here, the herbicidal compositions were suspended or emulsified in water as distribution medium and sprayed using finely distributing nozzles. The respective component I was formulated as a 12% by weight strength emulsion concentrate, and component II as a 10% by weight suspension concentrate. Optionally components III can be used in their appropriate available formulation types. The components I, II and optionally III were introduced to the spray liquid with the amount of solvent system used for applying the active compound. The test period extended over 21 days. During this time, the plants were tended, and their response to the treatments with active compound was evaluated. The evaluation for the damage caused by the chemical compositions was carried out using a scale from 0 to 100%, compared to the untreated control plants. Here, 0 means no damage and 100 means complete destruction of the plants. [table]

CHEAL = experiment: Greenhouse post-emergence test, herbicidal action against CHEAL; assay type: in vivo, lambsquaters
Description: as §2

ABUTH = experiment: Greenhouse post-emergence test, herbicidal action against ABUTH; assay type: in vivo, velvetleaf
Description: as §2

AMARE = experiment: Greenhouse post-emergence test, herbicidal action against AMARE; assay type: in vivo, common amaranth
Description: as §2

COc1ccccc1C(=O)NS(=O)(=O)c1ccc(C(=O)NC2CC2)cc1 [II, N-[[4-[(cyclopropylamino)carbonyl]phenyl]sulfonyl]-2-methoxybenzamide]
damaging effect on TRZAS (TRZAS): has not shown damaging effect | damaging effect on HORVW (HORVW): has not shown damaging effect | damaging effect on ZEAMX (ZEAMX): has not shown damaging effect | herbicidal activity on POLCO (POLCO): has not shown herbicidal activity | herbicidal activity on CHEAL (CHEAL): has not shown herbicidal activity | herbicidal activity on ABUTH (ABUTH): has not shown herbicidal activity | herbicidal activity on AMARE (AMARE): has not shown herbicidal activity
